Here are results for four compounds from patent US8722849B2, “Polypeptides” (Novo Nordisk A/S, priority 2011, dated 2014).

Starred links: 1 amine or outer side, 2 acyl side, 3 side chain; linkers in the order of their positions; H or OH if unused. Positions of bridges follow the written chain, without caps; N, C: chain ends. Residues, ends and D or L forms follow the SMILES beside them. *: point of attachment. C20 diacid = O=C(O)CCCCCCCCCCCCCCCCCCC(=O)*; C18 diacid = O=C(O)CCCCCCCCCCCCCCCCC(=O)*; γGlu = O=C(O)[C@H](CCC(=O)[*:2])N[*:1]

This experiment has as its system food intake. The experiment is described as follows: Assay (I) efficacy testing on appetite (food intake), ad libitum fed rat model. Type of experiment: in vivo, Sprague Dawley (SD) rats. The conditions noted are these: 3 nmol/kg. An outline of the steps: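 Food consumption was logged per animal every hour up to 7 h and again at 24 h (occasionally 48 h) after a single 0.01–3 mg/kg dose, given sc, po or ip at dark-phase onset. Ad libitum fed SD rats, 200–250 g, kept on inverted light/dark cycle; vehicle group included, outliers removed by Grubbs test.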

Regarding `CC[C@H](C)[C@H](NC(=O)[C@@H]1CCCN1C(=O)CNC(=O)[C@H](Cc1ccccc1)NC(=O)[C@H](CC(N)=O)NC(=O)[C@H](CC(N)=O)NC(=O)[C@H](CO)NC(=O)[C@H](CO)NC(=O)[C@H](Cc1c[nH]cn1)NC(=O)[C@H](Cc1c[nH]cn1)NC(=O)[C@H](CC(C)C)NC(=O)[C@H](Cc1ccccc1)NC(=O)[C@H](CCC(=O)O)NC(=O)[C@H](C)NC(=O)[C@H](CC(C)C)NC(=O)[C@H](CCCNC(=N)N)NC(=O)[C@H](CCC(N)=O)NC(=O)[C@@H](NC(=O)[C@H](C)NC(=O)[C@@H]1CSSC[C@H](NC(=O)[C@H](Cc2c[nH]cn2)NC(=O)[C@H](Cc2c[nH]cn2)NC(=O)[C@H](Cc2c[nH]cn2)NC(=O)CC[C@H](NC(=O)CCCCCCCCCCCCCCCCCCC(=O)O)C(=O)O)C(=O)N[C@@H](CCCNC(=N)N)C(=O)N[C@@H]([C@@H](C)O)C(=O)N[C@@H](C)C(=O)N[C@@H]([C@@H](C)O)C(=O)N1)[C@@H](C)O)C(=O)N[C@@H](CC(C)C)C(=O)N1CCC[C@H]1C(=O)N1CCC[C@H]1C(=O)N[C@H](C(=O)N[C@@H](CC(N)=O)C(=O)N[C@H](C(=O)NCC(=O)N[C@@H](CO)C(=O)N[C@@H](CC(N)=O)C(=O)N[C@H](C(=O)N[C@@H](Cc1ccc(O)cc1)C(N)=O)[C@@H](C)O)C(C)C)[C@@H](C)O` [Example 22, N-alpha-[(S)-4-Carboxy-4-(19-carboxynonadecanoylamino)butyryl]-His-His-[His1,Arg3,Glu14,His17]-pramlintide] ({C20 diacid-γGlu}-HHHCRTATCATQRLAEFLHHSSNNFGPILPPTNVGSNTY-NH2; disulfide 4-9 (inferred)), the “Food intake reduction 0-24 h 3 nmol/kg (%)” value is recorded as 26% and the “Food intake reduction 24-48 h 3 nmol/kg (%)” value was 5%.

For `CC[C@H](C)[C@H](NC(=O)[C@@H]1CCCN1C(=O)CNC(=O)[C@H](Cc1ccccc1)NC(=O)[C@H](CC(N)=O)NC(=O)[C@H](CC(N)=O)NC(=O)[C@H](CO)NC(=O)[C@H](CO)NC(=O)[C@H](CCCNC(=N)N)NC(=O)[C@H](Cc1c[nH]cn1)NC(=O)[C@H](CC(C)C)NC(=O)[C@H](Cc1ccccc1)NC(=O)[C@H](CCC(=O)O)NC(=O)[C@H](C)NC(=O)[C@H](CC(C)C)NC(=O)[C@H](CCCNC(=N)N)NC(=O)[C@H](CCC(N)=O)NC(=O)[C@@H](NC(=O)[C@H](C)NC(=O)[C@@H]1CSSC[C@H](NC(=O)[C@H](CCC(=O)O)NC(=O)CC[C@H](NC(=O)CCCCCCCCCCCCCCCCCCC(=O)O)C(=O)O)C(=O)N[C@@H](CC(N)=O)C(=O)N[C@@H]([C@@H](C)O)C(=O)N[C@@H](C)C(=O)N[C@@H]([C@@H](C)O)C(=O)N1)[C@@H](C)O)C(=O)N[C@@H](CC(C)C)C(=O)N1CCC[C@H]1C(=O)N1CCC[C@H]1C(=O)N[C@H](C(=O)N[C@@H](CC(N)=O)C(=O)N[C@H](C(=O)NCC(=O)N[C@@H](CO)C(=O)N[C@@H](CC(N)=O)C(=O)N[C@H](C(=O)N1CCC[C@H]1C(N)=O)[C@@H](C)O)C(C)C)[C@@H](C)O` [Example 10, N-alpha-[(S)-4-Carboxy-4-(19-carboxynonadecanoylamino)butyryl]-[Glu1,Glu14,His17,Arg18,Pro37]-pramlintide] ({C20 diacid-γGlu}-ECNTATCATQRLAEFLHRSSNNFGPILPPTNVGSNTP-NH2; disulfide 2-7), the “Food intake reduction 0-24 h 3 nmol/kg (%)” value was determined as 50% and the “Food intake reduction 24-48 h 3 nmol/kg (%)” value amounted to 40%.

Turning to `CC[C@H](C)[C@H](NC(=O)[C@@H]1CCCN1C(=O)CNC(=O)[C@H](Cc1ccccc1)NC(=O)[C@H](CC(N)=O)NC(=O)[C@H](CC(N)=O)NC(=O)[C@H](CO)NC(=O)[C@H](CO)NC(=O)[C@H](Cc1c[nH]cn1)NC(=O)[C@H](Cc1c[nH]cn1)NC(=O)[C@H](CC(C)C)NC(=O)[C@H](Cc1ccccc1)NC(=O)[C@H](CCC(=O)O)NC(=O)[C@H](C)NC(=O)[C@H](CC(C)C)NC(=O)[C@H](CCCNC(=N)N)NC(=O)[C@H](CCC(N)=O)NC(=O)[C@@H](NC(=O)[C@H](C)NC(=O)[C@@H]1CSSC[C@H](NC(=O)[C@H](CCCCN)NC(=O)[C@H](CCC(=O)O)NC(=O)CC[C@H](NC(=O)CCCCCCCCCCCCCCCCC(=O)O)C(=O)O)C(=O)N[C@@H](CC(N)=O)C(=O)N[C@@H]([C@@H](C)O)C(=O)N[C@@H](C)C(=O)N[C@@H]([C@@H](C)O)C(=O)N1)[C@@H](C)O)C(=O)N[C@@H](CC(C)C)C(=O)N1CCC[C@H]1C(=O)N1CCC[C@H]1C(=O)N[C@H](C(=O)N[C@@H](CC(N)=O)C(=O)N[C@H](C(=O)NCC(=O)N[C@@H](CO)C(=O)N[C@@H](CC(N)=O)C(=O)N[C@H](C(=O)N[C@@H](Cc1ccc(O)cc1)C(N)=O)[C@@H](C)O)C(C)C)[C@@H](C)O` [Example 42, N-alpha-[(S)-4-Carboxy-4-(17-carboxyheptadecanoylamino)butyryl]-Glu-[Glu14,His17]-pramlintide] ({C18 diacid-γGlu}-EKCNTATCATQRLAEFLHHSSNNFGPILPPTNVGSNTY-NH2; disulfide 3-8 (inferred)), the “Food intake reduction 0-24 h 3 nmol/kg (%)” value is 45% and the “Food intake reduction 24-48 h 3 nmol/kg (%)” value stood at 5%.

As to `CC[C@H](C)[C@H](NC(=O)[C@@H]1CCCN1C(=O)CNC(=O)[C@H](Cc1ccccc1)NC(=O)[C@H](CC(N)=O)NC(=O)[C@H](CC(N)=O)NC(=O)[C@H](CO)NC(=O)[C@H](CO)NC(=O)[C@H](Cc1c[nH]cn1)NC(=O)[C@H](Cc1c[nH]cn1)NC(=O)[C@H](CC(C)C)NC(=O)[C@H](Cc1ccccc1)NC(=O)[C@H](CCC(=O)O)NC(=O)[C@H](C)NC(=O)[C@H](CC(C)C)NC(=O)[C@H](CCCNC(=N)N)NC(=O)[C@H](CCC(N)=O)NC(=O)[C@@H](NC(=O)[C@H](C)NC(=O)[C@@H]1CSSC[C@H](NC(=O)[C@H](CCCCN)NC(=O)[C@H](CCC(=O)O)NC(=O)CC[C@H](NC(=O)CCCCCCCCCCCCCCCCCCC(=O)O)C(=O)O)C(=O)N[C@@H](CC(N)=O)C(=O)N[C@@H]([C@@H](C)O)C(=O)N[C@@H](C)C(=O)N[C@@H]([C@@H](C)O)C(=O)N1)[C@@H](C)O)C(=O)N[C@@H](CC(C)C)C(=O)N1CCC[C@H]1C(=O)N1CCC[C@H]1C(=O)N[C@H](C(=O)N[C@@H](CC(N)=O)C(=O)N[C@H](C(=O)NCC(=O)N[C@@H](CO)C(=O)N[C@@H](Cc1c[nH]cn1)C(=O)N[C@H](C(=O)N[C@@H](Cc1ccc(O)cc1)C(N)=O)[C@@H](C)O)C(C)C)[C@@H](C)O` [Example 56, N-alpha-[(S)-4-Carboxy-4-(19-carboxynonadecanoylamino)butyryl]-Glu-[Glu14,His17,His35]-pramlintide] ({C20 diacid-γGlu}-EKCNTATCATQRLAEFLHHSSNNFGPILPPTNVGSHTY-NH2; disulfide 3-8 (inferred)), the “Food intake reduction 0-24 h 3 nmol/kg (%)” value is recorded as 46% and the “Food intake reduction 24-48 h 3 nmol/kg (%)” value came out at 21%.
